Data from PMC6152194 (Molecules : A Journal of Synthetic Chemistry and Natural …, 2017).
“And” between values parts separate entries of the source, which are not always exact repeats. Identical values can stand only once. Like-named read-outs stand apart in the source and are kept apart here.

Legend:
horse BChE [1] = target: T1, horse BChE (Equus caballus, UniProt P81908); assay: biochemical; assay type: biochemical; conditions: for type of inhibition: hydrolysis of 50 μM BSCh, progress curves to 600 s; for Kon: pH 7.0
T1 construct: purchased Worthington Biochemical Corporation
Description: Purified horse BChE was from Worthington Biochemical Corporation, dithio-bis-di-nitro benzoic acid and butyrylthiocholine iodide (BSCh) were from Sigma, tetramethylammonium iodide (TMA), tetraethylammonium iodide (TEA), edrophonium chloride (EDR), and methanesulfonylfluoride (MSF) were from BDH; decamethonium bromide (DME) was from Koch Light Laboratories; sodium fluoride and d-Tubocurarine were from Fluka AG. N-((1-benzylpiperidin-3-yl)methyl)-N-methylnaphthalene-2-sulfonamide (942) was synthesized in the Faculty of Pharmacy, University of Ljubljana (Ljubljana, Slovenia). All other reagents used were of analytical grade. The experiments were carried out at 25 °C in 25 mM phosphate buffer, pH 7.0.
A series of compounds were tested by measuring the progress curves for BSCh hydrolysis by horse BChE in the absence and presence of each compound at a single concentration over 10 min, in a 0.6 mL cuvette, using the method of Ellman et al.. […] The concentration of horse BChE, which was always added last, was ~1 nM, for hydrolysis of 50 μM BSCh to completion (in most cases), in the presence of 1 mM dithio-bis-di-nitro benzoic acid. Reaching the plateau was important to get an exact estimate of the actual initial BSCh concentration. This was achieved by conversion of the change in absorbance at 412 nm of the resulting thio-nitro benzoate, using a molar absorption coefficient of 13,800 mol^−1 cm^−1. All of the measurements were conducted using a conventional spectrophotometer (Lambda 45/Vis; Perkin-Elmer), and a 10-s lag period was added before the start of each measurement. The progress curves were then extrapolated to start at the origin prior to the analysis.
The progress-curve analysis was performed using the ENZO web application (Figure 2), implemented at www.enzo.cmm.ki.si. For rapid determination of the kinetics mechanisms and parameters, the Van Slyke–Cullen reaction scheme for substrate hydrolysis by horse BChE was combined with a reversible competitive inhibition mechanism, as expected for active-site-directed ligands. […] In the initial evaluation, all of the second-order binding rate constants (kon’s), although not the constant for MSF, were set to the diffusion rate-limited value of 2 ×10^8 M^−1 s^−1. Therefore, only the first-order dissociation rate constants, together with the substrate specificity constant kcat/Km, the initial substrate concentration, and the added horse BChE active-site concentration, had to be evaluated. The kcat of 663 s^−1 for the hydrolysis of BSCh by horse BChE was taken from a previous study performed under the same conditions.
Therefore, a similar experiment was performed, but in the presence of three additional sodium fluoride concentrations (0.25, 1, 2.5 mM). Each of these measurements was performed twice in a row to determine the reliability of the data obtained. The progress curve analysis was then performed using four types of classical inhibition mechanisms: competitive, uncompetitive, non-competitive, and mixed. Again, a 10-s lag period was added to the time-course of each measurement prior to the analysis using the ENZO web application.

horse BChE [2] = target: T1, horse BChE; conditions: hydrolysis of BSCh by horse BChE, same conditions; cited from earlier work
[3] = slow isomerization step after instantaneous binding, 50 μM BSCh
[4] = 50 μM BSCh, 25 °C, 25 mM phosphate buffer pH 7.0, single progress curve, competitive mechanism, read-out: Ki

T1 sequence (P81908 whole entry): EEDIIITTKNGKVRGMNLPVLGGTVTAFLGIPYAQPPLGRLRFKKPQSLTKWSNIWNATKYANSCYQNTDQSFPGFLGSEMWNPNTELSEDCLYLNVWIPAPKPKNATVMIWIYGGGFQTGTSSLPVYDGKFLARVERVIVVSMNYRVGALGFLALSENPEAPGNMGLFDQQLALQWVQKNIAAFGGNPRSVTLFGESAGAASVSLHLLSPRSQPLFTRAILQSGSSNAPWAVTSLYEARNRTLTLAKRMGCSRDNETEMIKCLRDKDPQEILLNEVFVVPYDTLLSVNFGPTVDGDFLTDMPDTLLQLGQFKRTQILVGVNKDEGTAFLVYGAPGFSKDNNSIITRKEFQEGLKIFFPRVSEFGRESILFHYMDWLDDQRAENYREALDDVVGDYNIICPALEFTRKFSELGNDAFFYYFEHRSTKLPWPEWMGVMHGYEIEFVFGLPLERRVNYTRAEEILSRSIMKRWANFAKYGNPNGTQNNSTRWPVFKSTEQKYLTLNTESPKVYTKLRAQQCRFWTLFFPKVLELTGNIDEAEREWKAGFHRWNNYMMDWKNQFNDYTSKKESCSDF

## COc1cc2c3cc1Oc1cc(ccc1O)C[C@@H]1c4c(cc(OC)c(O)c4Oc4ccc(cc4)C[C@@H]3N(C)CC2)CC[N+]1(C)C [d-Tubocurarine]
Horse BChE [1]
  Ki: 5.1 µM
  type of inhibition: slow binder
Horse BChE [1]; [3]
  K+isomerization: 0.029 s⁻¹
  K-isomerization: 0.010 s⁻¹

## [I-].[Na+] [sodium iodide]
Horse BChE [1]; at 0.5 mM, data not shown
  inhibition of BSCh hydrolysis: no inhibition

## CS(=O)(=O)F [Methanesulfonylfluoride, methanesulfonylfluoride]
Horse BChE [1]
  type of inhibition: irreversible inhibitor
Horse BChE [1]; irreversible inhibition step, 15 mM MSF, 50 μM BSCh, 25 °C
  Kon: 0.39 s⁻¹

## CC[N+](C)(C)c1cccc(O)c1 [Edrophonium, edrophonium chloride]
Horse BChE [1]
  Ki: 21 µM
  type of inhibition: reversible competitive inhibitors

## C[N+](C)(C)CCCCCCCCCC[N+](C)(C)C [Decamethonium, decamethonium bromide]
Horse BChE [1]
  Ki: 7.6 µM
  type of inhibition: reversible competitive inhibitors

## C[N+](C)(C)C.[I-] [Tetramethylammonium, tetramethylammonium iodide]
Horse BChE [1]; [4]
  Ki: 2400 µM
Horse BChE [1]
  type of inhibition: reversible competitive inhibitors

## CN(CC1CCCN(Cc2ccccc2)C1)S(=O)(=O)c1ccc2ccccc2c1 (centres unmarked) [compound 942, N-((1-benzylpiperidin-3-yl)methyl)-N-methylnaphthalene-2-sulfonamide]
Horse BChE [1]; association rate constant, 50 μM BSCh, 25 °C
  Kon: 6.2e+07 M⁻¹ s⁻¹ and 6.2 M⁻¹ s⁻¹
Horse BChE [1]
  type of inhibition: tight binder
Horse BChE [1]; read-out: Ki
  Ki: 0.00043 µM

## [F-].[Na+] [Sodium fluoride, sodium fluoride]
Horse BChE [1]; competitive component of mixed inhibition, from Figure 3, 0.25, 0.5, 1 and 2.5 mM sodium fluoride, 50 μM BSCh, read-out: Ki
  Ki: 830 µM
Horse BChE [1]
  type of inhibition: mixed reversible inhibitor
Horse BChE [1]; mixed inhibition model, Table 1
  uncompetitive component stronger than the competitive component: 2.4 fold
Horse BChE [1]; uncompetitive component of mixed inhibition, from Figure 3, 0.25, 0.5, 1 and 2.5 mM sodium fluoride, 50 μM BSCh
  Kii: 0.34 mM

## CCCC(=O)SCC[N+](C)(C)C.[I-] [BSCh, butyrylthiocholine iodide]
Horse BChE [2]
  kcat: 663 s⁻¹

## CC[N+](CC)(CC)CC.[I-] [Tetraethylammonium, tetraethylammonium iodide]
Horse BChE [1]; [4]
  Ki: 1500 µM
Horse BChE [1]
  type of inhibition: reversible competitive inhibitors
